In patent US10213433B2 (AbbVie Inc., priority 2010, dated 2019):

How the values were obtained:
Bcl-2 protein = Bcl-2 protein (Homo sapiens (Human), UniProt P10415); assay: Bcl-2 binding TR-FRET (Time-Resolved Fluorescence-Resonance-Energy-Transfer) assay; conditions: inhibition constant for binding to Bcl-2 protein
Description: The smaller the Ki value, the greater is the binding affinity.

[1] = log D at pH 7.4 by an HPLC method; type: physicochemical
Description: Table 2 below presents data for log D (a parameter related to lipophilicity) at pH 7.4, as determined by an HPLC method, for representative compounds.

Chain of Bcl-2 protein (P10415 whole entry): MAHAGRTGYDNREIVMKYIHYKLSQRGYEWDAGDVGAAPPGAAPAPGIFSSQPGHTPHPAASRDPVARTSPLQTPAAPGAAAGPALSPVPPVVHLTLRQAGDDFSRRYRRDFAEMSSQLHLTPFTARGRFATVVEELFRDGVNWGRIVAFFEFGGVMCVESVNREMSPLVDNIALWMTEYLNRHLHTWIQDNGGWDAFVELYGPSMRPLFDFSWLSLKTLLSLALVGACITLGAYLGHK

| chromatographic logD [1] | log D [1] | SMILES | Ki (Bcl-2 protein) [nM] |
| --- | --- | --- | --- |
| 6.59 | – | CN1CCN(Nc2ccc(S(=O)(=O)NC(=O)c3ccc(N4CCN(CC5=C(c6ccc(Cl)cc6)CC(C)(C)CC5)CC4)cc3Oc3ccc4[nH]ccc4c3)cc2[N+](=O)[O-])CC1 [Compound 91, 4-(4-{[2-(4-chlorophenyl)-4,4-dimethylcyclohex-1-en-1-yl]methyl}piperazin-1-yl)-2-(1H-indol-5-yloxy)-N-({4-[(4-methylpiperazin-1-yl)amino]-3-nitrophenyl}sulfonyl)benzamide] | – |
| 6.21 | – | CC1(C)CCC(CN2CCN(c3ccc(C(=O)NS(=O)(=O)c4ccc(NC5CCN(C6CCOCC6)CC5)c([N+](=O)[O-])c4)c(Oc4ccc5[nH]ccc5c4)c3)CC2)=C(c2ccc(Cl)cc2)C1 [Compound 89, 4-(4-{[2-(4-chlorophenyl)-4,4-dimethylcyclohex-1-en-1-yl]methyl}piperazin-1-yl)-2-(1H-indol-5-yloxy)-N-({3-nitro-4-[(1-tetrahydro-2H-pyran-4-ylpiperidin-4-yl)amino]phenyl}sulfonyl)benzamide] | – |
| 6.24 | – | COCCNc1ccc(S(=O)(=O)NC(=O)c2ccc(N3CCN(CC4=C(c5ccc(Cl)cc5)CC(C)(C)CC4)CC3)cc2Oc2ccc3[nH]ccc3c2)cc1[N+](=O)[O-] [Compound 20, 4-(4-{[2-(4-chlorophenyl)-4,4-dimethylcyclohex-1-en-1-yl]methyl}piperazin-1-yl)-2-(1H-indol-5-yloxy)-N-({4-[(2-methoxyethyl)amino]-3-nitrophenyl}sulfonyl)benzamide] | – |
| 5.86 | – | O=C(NS(=O)(=O)c1ccc(NCC2CCOCC2)c([N+](=O)[O-])c1)c1ccc(N2CCN(Cc3ccccc3-c3ccc(Cl)cc3)CC2)cc1Oc1ccc2[nH]ccc2c1 [Compound 87, 4-{4-[(4′-chloro-1,1′-biphenyl-2-yl)methyl]piperazin-1-yl}-2-(1H-indol-5-yloxy)-N-({3-nitro-4-[(tetrahydro-2H-pyran-4-ylmethyl)amino]phenyl}sulfonyl)benzamide] | – |
| 6.35 | – | CC1(C)CCC(CN2CCN(c3ccc(C(=O)NS(=O)(=O)c4ccc(NCC5CCOCC5)c([N+](=O)[O-])c4)c(Oc4ccc5[nH]ccc5c4)c3)CC2)=C(c2ccc(Cl)cc2)C1 [Compound 18, 4-(4-{[2-(4-chlorophenyl)-4,4-dimethylcyclohex-1-en-1-yl]methyl}piperazin-1-yl)-2-(1H-indol-5-yloxy)-N-({3-nitro-4-[(tetrahydro-2H-pyran-4-ylmethyl)amino]phenyl}sulfonyl)benzamide] | – |
| 5.92 | – | CC1(C)CCC(CN2CCN(c3ccc(C(=O)NS(=O)(=O)c4ccc(NCC5CCC(F)(F)CC5)c([N+](=O)[O-])c4)c(Oc4cnc5[nH]ccc5c4)c3)CC2)=C(c2ccc(Cl)cc2)C1 [Compound 239, 4-(4-{[2-(4-chlorophenyl)-4,4-dimethylcyclohex-1-en-1-yl]methyl}piperazin-1-yl)-N-[(4-{[(4,4-difluorocyclohexyl)methyl]amino}-3-nitrophenyl)sulfonyl]-2-(1H-pyrrolo[2,3-b]pyridin-5-yloxy)benzamide] | – |
| 6.69 | – | CN1CCC(Nc2ccc(S(=O)(=O)NC(=O)c3ccc(N4CCN(CC5=C(c6ccc(Cl)cc6)CC(C)(C)CC5)CC4)cc3Oc3ccc4[nH]ccc4c3)cc2[N+](=O)[O-])CC1 [Compound 90, 4-(4-{[2-(4-chlorophenyl)-4,4-dimethylcyclohex-1-en-1-yl]methyl}piperazin-1-yl)-2-(1H-indol-5-yloxy)-N-({4-[(1-methylpiperidin-4-yl)amino]-3-nitrophenyl}sulfonyl)benzamide] | – |

The next lines start with the molecule.

| SMILES | chromatographic logD [1] | log D [1] | Ki (Bcl-2 protein) [nM] |
| --- | --- | --- | --- |
| CC1(C)CCC(CN2CCN(c3ccc(C(=O)NS(=O)(=O)c4ccc(OCC5(F)CCOCC5)c(Cl)c4)c(Oc4cnc5[nH]ccc5c4)c3)CC2)=C(c2ccc(Cl)cc2)C1 [Compound 286, N-({3-chloro-4-[(4-fluorotetrahydro-2H-pyran-4-yl)methoxy]phenyl}sulfonyl)-4-(4-{[2-(4-chlorophenyl)-4,4-dimethylcyclohex-1-en-1-yl]methyl}piperazin-1-yl)-2-(1H-pyrrolo[2,3-b]pyridin-5-yloxy)benzamide] | 5.66 | – | < 0.01 |
| CC1(C)CCC(CN2CCN(c3ccc(C(=O)NS(=O)(=O)c4cnc(OCC5(F)CCN(C6COC6)CC5)c(Cl)c4)c(Oc4cnc5[nH]ccc5c4)c3)CC2)=C(c2ccc(Cl)cc2)C1 [Compound 277, N-[(5-chloro-6-{[4-fluoro-1-(oxetan-3-yl)piperidin-4-yl]methoxy}pyridin-3-yl)sulfonyl]-4-(4-{[2-(4-chlorophenyl)-4,4-dimethylcyclohex-1-en-1-yl]methyl}piperazin-1-yl)-2-(1H-pyrrolo[2,3-b]pyridin-5-yloxy)benzamide] | 5.26 | – | < 0.01 |
| CC1(C)CCC(CN2CCN(c3ccc(C(=O)NS(=O)(=O)c4ccc(NC[C@H]5CC[C@H](C#N)CC5)c([N+](=O)[O-])c4)c(Oc4cnc5[nH]ccc5c4)c3)CC2)=C(c2ccc(Cl)cc2)C1 [Compound 276, 4-(4-{[2-(4-chlorophenyl)-4,4-dimethylcyclohex-1-en-1-yl]methyl}piperazin-1-yl)-N-[(4-{[(trans-4-cyanocyclohexyl)methyl]amino}-3-nitrophenyl)sulfonyl]-2-(1H-pyrrolo[2,3-b]pyridin-5-yloxy)benzamide] | 5.59 | – | – |
| CN1CCC[C@H]1C(=O)N1CCC(COc2ccc(S(=O)(=O)NC(=O)c3ccc(N4CCN(CC5=C(c6ccc(Cl)cc6)CC(C)(C)CC5)CC4)cc3Oc3cnc4[nH]ccc4c3)cc2Cl)CC1 [Compound 312, N-[(3-chloro-4-{[1-(1-methyl-L-prolyl)piperidin-4-yl]methoxy}phenyl)sulfonyl]-4-(4-{[2-(4-chlorophenyl)-4,4-dimethylcyclohex-1-en-1-yl]methyl}piperazin-1-yl)-2-(1H-pyrrolo[2,3-b]pyridin-5-yloxy)benzamide] | 6.47 | – | < 0.01 |
| CC1(C)CCC(CN2CCN(c3ccc(C(=O)NS(=O)(=O)c4cnc(OCC5(F)CCOCC5)c(C(F)(F)F)c4)c(Oc4cnc5[nH]ccc5c4)c3)CC2)=C(c2ccc(Cl)cc2)C1 [Compound 208, 4-(4-{[2-(4-chlorophenyl)-4,4-dimethylcyclohex-1-en-1-yl]methyl}piperazin-1-yl)-N-{[6-[(4-fluorotetrahydro-2H-pyran-4-yl)methoxy]-5-(trifluoromethyl)pyridin-3-yl]sulfonyl}-2-(1H-pyrrolo[2,3-b]pyridin-5-yloxy)benzamide] | 5.57 | – | – |
| CC1(C)CCC(CN2CCN(c3ccc(C(=O)NS(=O)(=O)c4ccc(NC[C@H]5CC[C@](C)(O)CC5)c([N+](=O)[O-])c4)c(Oc4cnc5[nH]ccc5c4)c3)CC2)=C(c2ccc(Cl)cc2)C1 [Compound 338, 4-(4-{[2-(4-chlorophenyl)-4,4-dimethylcyclohex-1-en-1-yl]methyl}piperazin-1-yl)-N-[(4-{[(cis-4-hydroxy-4-methylcyclohexyl)methyl]amino}-3-nitrophenyl)sulfonyl]-2-(1H-pyrrolo[2,3-b]pyridin-5-yloxy)benzamide] | – | 5.67 | – |
| CC1(C)CCC(CN2CCN(c3ccc(C(=O)NS(=O)(=O)c4ccc(NCCCN(C5CC5)C5COC5)c([N+](=O)[O-])c4)c(Oc4cnc5[nH]ccc5c4)c3)CC2)=C(c2ccc(Cl)cc2)C1 [Compound 311, 4-(4-{[2-(4-chlorophenyl)-4,4-dimethylcyclohex-1-en-1-yl]methyl}piperazin-1-yl)-N-{[4-({3-[cyclopropyl(oxetan-3-yl)amino]propyl}amino)-3-nitrophenyl]sulfonyl}-2-(1H-pyrrolo[2,3-b]pyridin-5-yloxy)benzamide] | 5.6 | – | < 0.01 |
| CC1(C)CCC(CN2CCN(c3ccc(C(=O)NS(=O)(=O)c4cnc(NCC5(F)CCOCC5)c(Cl)c4)c(Oc4cnc5[nH]ccc5c4)c3)CC2)=C(c2ccc(Cl)cc2)C1 [Compound 242, N-[(5-chloro-6-{[(4-fluorotetrahydro-2H-pyran-4-yl)methyl]amino}pyridin-3-yl)sulfonyl]-4-(4-{[2-(4-chlorophenyl)-4,4-dimethylcyclohex-1-en-1-yl]methyl}piperazin-1-yl)-2-(1H-pyrrolo[2,3-b]pyridin-5-yloxy)benzamide] | 5.51 | – | – |
| CC1(C)CCC(CN2CCN(c3ccc(C(=O)NS(=O)(=O)c4ccc(NC[C@H]5CC[C@@](C)(O)CC5)c([N+](=O)[O-])c4)c(Oc4cnc5[nH]ccc5c4)c3)CC2)=C(c2ccc(Cl)cc2)C1 [Compound 337, 4-(4-{[2-(4-chlorophenyl)-4,4-dimethylcyclohex-1-en-1-yl]methyl}piperazin-1-yl)-N-[(4-{[(trans-4-hydroxy-4-methylcyclohexyl)methyl]amino}-3-nitrophenyl)sulfonyl]-2-(1H-pyrrolo[2,3-b]pyridin-5-yloxy)benzamide] | – | 5.48 | – |
| CC1(C)CCC(CN2CCN(c3ccc(C(=O)NS(=O)(=O)c4ccc(N[C@H]5CC[C@H](N6CCOCC6)CC5)c([N+](=O)[O-])c4)c(Oc4cnc5[nH]ccc5c4)c3)CC2)=C(c2ccc(Cl)cc2)C1 [Compound 9, trans-4-(4-{[2-(4-chlorophenyl)-4,4-dimethylcyclohex-1-en-1-yl]methyl}piperazin-1-yl)-N-({4-[(4-morpholin-4-ylcyclohexyl)amino]-3-nitrophenyl}sulfonyl)-2-(1H-pyrrolo[2,3-b]pyridin-5-yloxy)benzamide] | 5.71 | – | – |
| CC1(C)CCC(CN2CCN(c3ccc(C(=O)NS(=O)(=O)c4ccc(OC[C@H]5CC[C@H](N6CCOCC6)CC5)c(Cl)c4)c(Oc4cnc5[nH]ccc5c4)c3)CC2)=C(c2ccc(Cl)cc2)C1 [Compound 303, N-[(3-chloro-4-{[trans-4-(morpholin-4-yl)cyclohexyl]methoxy}phenyl)sulfonyl]-4-(4-{[2-(4-chlorophenyl)-4,4-dimethylcyclohex-1-en-1-yl]methyl}piperazin-1-yl)-2-(1H-pyrrolo[2,3-b]pyridin-5-yloxy)benzamide] | 6.24 | – | – |
